This is an account of results in US6660885B2, “Polycyclic aryl and heteroaryl substituted benzenes useful for selective inhibition of the coagulation cascade” (Pharmacia Corporation, priority 2000, dated 2003).

Holding throughout (format): biochemical
One test deals with T1, human factor Xa (Homo sapiens, UniProt P00742).
T1 construct: leads from XII to XIIa to XIa to IXa and to the conversion of X to Xa; purchased Enzyme Research Laboratories, South Bend Ind
Put plainly: Xa Assay (chromogenic substrate S-2765, 405 nm). The method, then:
0.3 nM human factor Xa and 0.15 mM N-a-Benzyloxycarbonyl-D-arginyl-L-glycyl-L-arginine-p-nitroaniline-dihydrochloride (S-2765) are added to a 96-well assay plate containing either inhibitor or buffer (50 mM Tris-HCl, pH 8.0, 100 mM NaCl, 0.1% BSA). The reaction, in a final volume of 100 ul is measured immediately at 405 nm to determine background absorbance. The plate is incubated at room temperature for 60 min, at which time the rate of hydrolysis of the substrate is measured by monitoring the reaction at 405 nm for the release of p-nitroaniline. Percent inhibition of Xa activity is calculated from OD405nm value from the experimental and control sample.
(§1) Recombinant soluble TF, consisting of amino acids 1-219 of the mature protein sequence was expressed in E. coli and purified using a Mono Q Sepharose FPLC. Recombinant human Vlla was purchased from American Diagnostica, Greenwich Conn. and chromogenic substrate N-Methylsulfonyl-D-phe-gly-arg-p-nitroaniline was prepared by American Peptide Company, Inc., Sunnyvale, Calif. Factor Xa was obtained from Enzyme Research Laboratories, South Bend Ind., thrombin from Calbiochem, La Jolla, Calif., and trypsin and L-BAPNA from Sigma, St. Louis Mo. The chromogenic substrates S-2765 and S-2238 were purchased from Chromogenix, Sweden.

The target in test [1] is T2, trypsin, type IX from porcine pancreas (Sus scrofa, UniProt P00761).
T2 construct: purchased Sigma, St. Louis Mo; host or cells: porcine pancreas
Nature of the test: Trypsin Assay (L-BAPNA, 405 nm). As for the experimental part: 5 ug/ml trypsin, type IX^0 from porcine pancreas and 0.375 mM N-α-Benzoyl-L-arginine-p-nitroanilide (L-BAPNA) are added to a 96-well assay plate containing either inhibitor or buffer (50 mM Tris-HCl, pH 8.0, 100 mM NaCl, 0.1% BSA). The reactions, in a final volume of 100 ul are measured immediately at 405 nm to determine background absorbance. The plate is incubated at room temperature for 60 min, at which time the rate of hydrolysis of the substrate is measured by monitoring the reaction at 405 nm for the release of p-nitroaniline. Percent inhibition of trypsin activity is calculated from OD405nm value from the experimental and control sample.
as §1

A further test concerns the target human thrombin (Homo sapiens, UniProt P00734). Put plainly: Thrombin Assay (chromogenic substrate, 405 nm). The following applies: for IC50: read-out: Thrombin II IC50; for Thrombin II percent inhibition: at 30 (uM).
For test [2], the target named is T3, recombinant soluble tissue factor and recombinant human factor VIIa (TF-VIIa) (Homo sapiens, UniProt P08709).
T3 construct: purchased American Diagnostica, Greenwich Conn; soluble TF made in house in E. coli
Put plainly: TF-VIIa Assay (chromogenic substrate hydrolysis, 405 nm). Conditions: read-out: IF-VIIA IC50.
Method: In this assay 100 nM recombinant soluble tissue factor and 2 nM recombinant human factor VIla are added to a 96-well assay plate containing 0.4 mM of the substrate, N-Methylsulfonyl-D-phe-gly-arg-p-nitroaniline and either inhibitor or buffer (5 mM CaCI2, 50 mM Tris-HCl, pH 8.0, 100 mM NaCl, 0.1% BSA). The reaction, in a final volume of 100 ul is measured immediately at 405 nm to determine background absorbance. The plate is incubated at room temperature for 60 min, at which time the rate of hydrolysis of the substrate is measured by monitoring the reaction at 405 nm for the release of p-nitroaniline. Percent inhibition of TF-VIIa activity is calculated from OD405nm value from the experimental and control sample.

Where two headings read alike, the source gives them in different places. Some results are limits rather than exact numbers.

T2 sequence (P00761 9-231): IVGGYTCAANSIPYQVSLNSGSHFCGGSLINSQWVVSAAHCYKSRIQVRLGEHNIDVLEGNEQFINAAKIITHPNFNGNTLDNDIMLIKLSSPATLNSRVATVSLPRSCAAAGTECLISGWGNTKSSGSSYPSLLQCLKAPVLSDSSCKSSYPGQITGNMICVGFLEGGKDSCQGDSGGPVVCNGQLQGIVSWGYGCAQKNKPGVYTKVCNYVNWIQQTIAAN
T3 sequence (P08709 213-466 limits assumed): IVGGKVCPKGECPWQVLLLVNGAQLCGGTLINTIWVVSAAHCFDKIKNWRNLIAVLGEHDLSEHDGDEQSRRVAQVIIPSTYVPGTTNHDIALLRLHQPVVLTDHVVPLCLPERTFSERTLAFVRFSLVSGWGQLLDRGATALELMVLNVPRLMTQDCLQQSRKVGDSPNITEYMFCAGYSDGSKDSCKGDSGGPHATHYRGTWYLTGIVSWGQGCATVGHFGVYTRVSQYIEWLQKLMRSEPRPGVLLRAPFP
T3 sequence (P08709 61-212 limits assumed): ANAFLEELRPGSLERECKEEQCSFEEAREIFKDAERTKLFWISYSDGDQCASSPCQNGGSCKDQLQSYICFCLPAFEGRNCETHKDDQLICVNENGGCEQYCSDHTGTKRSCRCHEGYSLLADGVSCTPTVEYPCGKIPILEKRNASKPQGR
T3 sequence (P13726 33-251 partner limits assumed): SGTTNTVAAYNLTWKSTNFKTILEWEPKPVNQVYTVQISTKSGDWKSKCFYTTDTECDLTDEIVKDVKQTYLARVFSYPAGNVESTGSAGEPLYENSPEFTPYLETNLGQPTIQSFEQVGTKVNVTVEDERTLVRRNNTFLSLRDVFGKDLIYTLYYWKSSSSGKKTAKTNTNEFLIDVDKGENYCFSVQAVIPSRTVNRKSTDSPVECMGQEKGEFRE
T1 sequence (P00742 235-488 limits assumed): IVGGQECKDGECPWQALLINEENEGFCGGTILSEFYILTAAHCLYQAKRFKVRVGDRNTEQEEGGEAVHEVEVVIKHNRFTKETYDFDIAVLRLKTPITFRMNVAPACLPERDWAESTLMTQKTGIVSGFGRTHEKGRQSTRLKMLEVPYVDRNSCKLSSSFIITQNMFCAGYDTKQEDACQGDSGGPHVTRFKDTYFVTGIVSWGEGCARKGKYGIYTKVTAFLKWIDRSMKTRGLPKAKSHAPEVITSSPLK
T1 sequence (P00742 41-179 limits assumed): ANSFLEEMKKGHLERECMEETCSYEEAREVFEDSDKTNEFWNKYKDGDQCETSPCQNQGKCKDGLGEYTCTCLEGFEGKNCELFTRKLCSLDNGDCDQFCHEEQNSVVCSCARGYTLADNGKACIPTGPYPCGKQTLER
Method for human thrombin: 0.28 nM human thrombin and 0.06 mM H-D-Phenylalanyl-L-pipecolyl-L-arginine-p-nitroaniline dihydrochloride are added to a 96-well assay plate containing either inhibitor or buffer (50 mM Tris-HCl, pH 8.0, 100 mM NaCl, 0.1% BSA). The reaction, in a final volume of 100 ul is measured immediately at 405 nm to determine background absorbance. The plate is incubated at room temperature for 60 min, at which time the rate of hydrolysis of the substrate is measured by monitoring the reaction at 405 nm for the release of p-nitroaniline. Percent inhibition of thrombin activity is calculated from OD405nm value from the experimental and control sample.

Take `O=C(NCC1CCNCC1)c1cc(NS(=O)(=O)Cc2ccccc2)ccc1Sc1ccccc1` [Example 1]: the IC50 (commonly the concentration that gives 50% inhibition) against human factor Xa is over 30 µM; in test [1] (read-out: Trpysin II IC50), 0.3 µM; on human thrombin, over 30 µM.
As to `CN(C)c1ccc(CNC(=O)c2cc(NS(=O)(=O)Cc3ccccc3)ccc2Sc2ccccc2)cc1` [Example 2], the IC50 (in test [1] (read-out: Trpysin II IC50); at human thrombin) was over 30 µM throughout.
With `O=C(NCc1ccncc1)c1cc(NS(=O)(=O)Cc2ccccc2)ccc1Sc1ccccc1` [Example 3], the IC50 (in test [1] (read-out: Trpysin II IC50); at human thrombin) was over 30 µM in each case.
The compound `Cl.N=C(N)c1ccc(CNC(=O)c2cc(NS(=O)(=O)Cc3ccccc3)ccc2Sc2ccccc2)cc1` [Example 4] came in with an IC50 in test [1] of 0.3 µM. Further, the “Thrombin II percent inhibition” value on human thrombin turned out to be 22% at 30.
Regarding `N=C(N)c1cccc(CNC(=O)c2cc(NS(=O)(=O)Cc3ccccc3)ccc2Sc2ccccc2)c1` [Example 5], the IC50 is over 30 µM in test [2] and 23 µM in test [1] (read-out: Trpysin II IC50). In addition, at human factor Xa (at 30 (uM)), the “Factor Xa percent inhibition” value amounted to 7% at 30. At human thrombin, the “Thrombin II percent inhibition” value is listed as 43% at 30.
As for `N=C(N)NCCCNC(=O)c1cc(NS(=O)(=O)Cc2ccccc2)ccc1Sc1ccccc1` [Example 6], the IC50 (in test [2]; against human factor Xa; in test [1] (read-out: Trpysin II IC50); on human thrombin) was over 100 µM throughout.
Regarding `N=C(N)NCCCCNC(=O)c1cc(NS(=O)(=O)Cc2ccccc2)ccc1Sc1ccccc1` [Example 7], the IC50 (in test [2]; on human factor Xa; in test [1] (read-out: Trpysin II IC50); on human thrombin) was over 100 µM throughout.
With `N=C(N)NCCCCCNC(=O)c1cc(NS(=O)(=O)Cc2ccccc2)ccc1Sc1ccccc1` [Example 8], the 50% inhibitory concentration (IC50) (in test [2]; against human factor Xa; in test [1] (read-out: Trpysin II IC50); at human thrombin) was over 100 µM throughout.
In the case of `O=C(Cc1c(F)ccc(NS(=O)(=O)Cc2ccccc2)c1F)NCC1CCNCC1` [Example 9], the IC50 is 0.3 µM in test [1] (read-out: Trpysin II IC50) and over 30 µM at human thrombin.
With `CN(C)c1ccc(CNC(=O)Cc2c(F)ccc(NS(=O)(=O)Cc3ccccc3)c2F)cc1` [Example 10], the IC50 (against human factor Xa; in test [1] (read-out: Trpysin II IC50); on human thrombin) was over 30 µM each time.
As for `O=C(Cc1c(F)ccc(NS(=O)(=O)Cc2ccccc2)c1F)NCc1ccncc1` [Example 11], the half-maximal inhibitory concentration (IC50) (against human factor Xa; in test [1] (read-out: Trpysin II IC50); on human thrombin) was over 30 µM throughout.
For the compound `O=C(Cc1c(F)ccc(NS(=O)(=O)Cc2ccccc2)c1F)NCCCn1ccnc1` [Example 12], the IC50 (in test [1] (read-out: Trpysin II IC50); at human thrombin) was over 30 µM each time.
`N=C(N)c1cccc(CNC(=O)Cc2c(F)ccc(NS(=O)(=O)Cc3ccccc3)c2F)c1` [Example 13]: the IC50 (against human factor Xa; in test [1] (read-out: Trpysin II IC50); at human thrombin) was over 30 µM throughout.
Regarding `N=C(N)c1ccc(CNC(=O)Cc2c(F)ccc(NS(=O)(=O)Cc3ccccc3)c2F)cc1` [Example 14], the values for the IC50 (in test [1] (read-out: Trpysin II IC50); at human thrombin) were 7.3 µM and about 30 µM, respectively.
For `N=C(N)NCCCCCNC(=O)Cc1c(F)ccc(NS(=O)(=O)Cc2ccccc2)c1F` [Example 15], in that order: over 30 µM and over 30 µM.
`N=C(N)c1ccc(CNC(=O)Cc2c(F)ccc(NCCc3ccccc3)c2F)cc1` [Example 16]: the IC50 in test [2] came out at 16.4 µM; in test [1] (read-out: Trpysin II IC50), 0.8 µM; on human thrombin, 1.6 µM. In addition, the “Factor Xa percent inhibition” value on human factor Xa (at 30 (uM)) was determined as 1% at 30.
As to `N=C(N)c1ccc(CNC(=O)Cc2c(-c3ccccc3)ccc(NCCc3ccccc3)c2F)cc1` [Example 17], the concentration for half-maximal inhibition (IC50) was found to be 4 µM in test [2], 0.2 µM in test [1] (read-out: Trpysin II IC50) and 7 µM on human thrombin.
With `COc1c(NCCc2ccccc2)ccc(-c2ccccc2)c1CC(=O)NCc1ccc(C(=N)N)cc1` [Example 18], the IC50 is 25 µM in test [2], over 30 µM against human factor Xa, 0.5 µM in test [1] (read-out: Trpysin II IC50) and 9.5 µM at human thrombin.
`N=C(N)c1ccc(CNC(=O)Cc2c(-c3ccccc3)ccc(NCCc3ccccc3)c2O)cc1` [Example 19]: the IC50 in test [2] came to 2.7 µM; in test [1] (read-out: Trpysin II IC50), 0.2 µM; on human thrombin, 7 µM.
With `N=C(N)c1ccc(CNC(=O)Cc2c(-c3cccc(N)c3)ccc(NCc3ccccc3)c2F)cc1` [Example 20], the IC50 was 0.67 µM in test [2], over 30 µM against human factor Xa, 0.2 µM in test [1] (read-out: Trpysin II IC50) and 9 µM at human thrombin.
As for `CC(C)Nc1ccc(-c2cccc(N)c2)c(CC(=O)NCc2ccc(C(=N)N)cc2)c1F` [Example 21], at human factor Xa (concentration not given), the “Factor Xa percent inhibition” value is listed as 18%. Also, in test [1] (read-out: Trpysin II IC50), the IC50 was under 0.04 µM.
For `COc1c(NC(C)C)ccc(-c2ccccc2)c1CC(=O)NCc1ccc(C(=N)N)cc1` [Example 22], the values for the concentration for half-maximal inhibition (IC50) (in test [2]; in test [1] (read-out: Trpysin II IC50); at human thrombin) were 14.7 µM, 0.1 µM and 7.9 µM, respectively.
